Among the test systems are NCI-H23 lung; M14 melanoma; SNB-19 CNS; U251 CNS; OVCAR-4 ovarian; HT29 colon; SN12C renal; RPMI-8226 leukemia; SK-MEL-28 melanoma; NCI-H226 lung.
Common to all, as to assay: DTP human tumour cell line panel, 48 h

The structures appear in SMILES notation.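 Cultured in 96-well plates, cells were exposed to test compound for 48 hours across five concentrations. GI50 is the concentration that inhibits growth by half. TGI is the concentration that stops growth completely.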

Usually GI50 stands for the concentration giving 50% growth inhibition. The TGI is the concentration giving total growth inhibition. A lower TGI goes with more potent growth arrest. Regarding `CCOC(=O)Nc1ccc2c(c1)C(=O)N(CC)c1ccccc1O2`, the GI50 in the test on NCI-H23 lung was 0.542 µM; in the test on M14 melanoma, 0.0617 µM; with SNB-19 CNS, 0.268 µM; in the test with U251 CNS, 0.106 µM; with OVCAR-4 ovarian, 0.237 µM; in the test with HT29 colon it was 0.0791 µM. Moreover, the GI50 with SN12C renal is 0.449 µM; in the test with RPMI-8226 leukemia, 0.126 µM; with SK-MEL-28 melanoma, 12.5 µM; in the test with NCI-H226 lung, 0.796 µM. Further, the concentration for total growth inhibition (TGI) was more than 100 µM in the test with NCI-H23 lung; more than 100 µM in the test with M14 melanoma; more than 100 µM in the test on SNB-19 CNS; more than 100 µM in the test with U251 CNS; more than 100 µM in the test on OVCAR-4 ovarian; more than 39.6 µM in the test with HT29 colon. In addition, the TGI in the test on SN12C renal, with RPMI-8226 leukemia, in the test with SK-MEL-28 melanoma and in the test with NCI-H226 lung was more than 100 µM each time.

For `Cc1[nH]c2ccccc2c1C1=NO/C(=N\O)C(c2c(C)[nH]c3ccccc23)C1` (stereo not given), the total growth inhibition concentration (TGI) in the test with NCI-H23 lung is more than 100 µM; in the test with M14 melanoma, more than 89.6 µM; in the test with SNB-19 CNS it was more than 100 µM; in the test on U251 CNS it was more than 100 µM; in the test with OVCAR-4 ovarian, more than 100 µM; with HT29 colon, 58.9 µM. Further, the TGI with SN12C renal, with RPMI-8226 leukemia, with SK-MEL-28 melanoma and in the test on NCI-H226 lung was more than 100 µM each time.

As to `CCC[CH2][Sn]1([CH2]CCC)[O]CC[S]1`, the 50% growth inhibitory concentration (GI50) was 0.398 µM in the test with NCI-H23 lung; 0.872 µM with M14 melanoma; 0.446 µM with SNB-19 CNS; 0.564 µM in the test on U251 CNS; 1.57 µM in the test on OVCAR-4 ovarian; 1.27 µM with HT29 colon. For the same compound, the GI50 was 0.818 µM with SN12C renal, 0.162 µM with RPMI-8226 leukemia, 0.238 µM with SK-MEL-28 melanoma and 1.02 µM with NCI-H226 lung. The TGI in the test on NCI-H23 lung was 1.82 µM; in the test with M14 melanoma, 2.68 µM; with SNB-19 CNS it was 1.6 µM; in the test on U251 CNS it was 1.64 µM; in the test with OVCAR-4 ovarian, 3 µM; in the test with HT29 colon, 2.81 µM. The concentration for total growth inhibition (TGI) amounted to 2.12 µM in the test on SN12C renal, 0.551 µM in the test on RPMI-8226 leukemia, 0.898 µM in the test with SK-MEL-28 melanoma and 2.36 µM in the test on NCI-H226 lung.

For the compound `O=C(O)CCSC(=O)Nc1cccc2ccccc12`, the total growth inhibition concentration (TGI) in the test on NCI-H23 lung, in the test with M14 melanoma, in the test with SNB-19 CNS, in the test with U251 CNS, with OVCAR-4 ovarian and in the test with HT29 colon was more than 100 µM throughout. In addition, the total growth inhibition concentration (TGI) in the test on SN12C renal, with RPMI-8226 leukemia, with SK-MEL-28 melanoma and with NCI-H226 lung was more than 100 µM each time.

Take `Cc1ccc(-c2nc(/C=N/Nc3cc(C)nc4ccc(Br)cc34)c(C)o2)cc1`: the GI50 in the test with NCI-H23 lung is 2.09 µM; in the test with M14 melanoma, 1.89 µM; with SNB-19 CNS, 1.86 µM; in the test on U251 CNS, 1.84 µM; in the test on OVCAR-4 ovarian, 1.89 µM; in the test on HT29 colon, 1.92 µM. In addition, the GI50 with SN12C renal was 1.88 µM; in the test on RPMI-8226 leukemia, 2.05 µM; with SK-MEL-28 melanoma it was 1.73 µM; with NCI-H226 lung, 15 µM. Besides, the TGI worked out at 4.75 µM in the test with NCI-H23 lung; 3.63 µM in the test with M14 melanoma; 3.48 µM in the test on SNB-19 CNS; 3.45 µM in the test with U251 CNS; 3.49 µM with OVCAR-4 ovarian; 3.82 µM with HT29 colon. Further, the TGI in the test on SN12C renal amounted to 3.69 µM; in the test with RPMI-8226 leukemia it was 4.71 µM; with SK-MEL-28 melanoma, 3.25 µM; in the test on NCI-H226 lung, 42.1 µM.

Take `Cc1nc(-n2nc(-c3ccccc3)cc2-c2ccccc2)sc1C(=O)/C=C/c1ccc([N+](=O)[O-])cc1`: the total growth inhibition concentration (TGI) in the test with NCI-H23 lung is more than 54.9 µM; in the test on M14 melanoma it was 94.7 µM; in the test with SNB-19 CNS it was more than 100 µM; in the test with U251 CNS, more than 47.6 µM; in the test on OVCAR-4 ovarian it was more than 100 µM; with HT29 colon it was more than 100 µM. In addition, the TGI was more than 76.4 µM in the test on SN12C renal, 23.5 µM with RPMI-8226 leukemia, more than 100 µM in the test on SK-MEL-28 melanoma and more than 100 µM with NCI-H226 lung.

As to `CC(=O)OC1=C2CC[C@@H]3C(CC[C@@]4(C)C3CC[C@@H]4OC(C)=O)[C@@]2(C)CC(C#N)C1=O` (stereo not given in full), the TGI in the test with NCI-H23 lung is more than 100 µM; in the test with M14 melanoma, more than 100 µM; with SNB-19 CNS, more than 100 µM; in the test on U251 CNS, 90.5 µM; with OVCAR-4 ovarian, 59.4 µM; in the test on HT29 colon it was more than 100 µM. Also, the TGI is more than 100 µM with SN12C renal, 46.9 µM in the test on RPMI-8226 leukemia, more than 100 µM with SK-MEL-28 melanoma and more than 100 µM with NCI-H226 lung.

Regarding `C#Cc1cccc(NC(=O)c2cccc(NC(=O)CCl)c2)c1`, the GI50 with NCI-H23 lung was 13.4 µM; in the test with M14 melanoma, 32.2 µM; in the test with SNB-19 CNS, 31.1 µM; in the test with U251 CNS it was 12.1 µM; with OVCAR-4 ovarian, 15.8 µM; with HT29 colon it was 8.18 µM. Besides, the GI50 is 14.9 µM in the test with SN12C renal, 17.3 µM with RPMI-8226 leukemia, 43.1 µM in the test on SK-MEL-28 melanoma and 19.8 µM in the test on NCI-H226 lung. Further, the total growth inhibition concentration (TGI) in the test with NCI-H23 lung was 29.9 µM; in the test on M14 melanoma, more than 82.5 µM; in the test on SNB-19 CNS it was more than 82.5 µM; in the test with U251 CNS it was 28.4 µM; with OVCAR-4 ovarian, 33.9 µM; with HT29 colon, 33.4 µM. The total growth inhibition concentration (TGI) in the test on SN12C renal was 49.1 µM; in the test on RPMI-8226 leukemia, 59.3 µM; in the test with SK-MEL-28 melanoma it was more than 82.5 µM; in the test on NCI-H226 lung, 59.4 µM.

In the case of `Cc1cc(=O)oc2cc3oc(N(C)c4ccccc4)nc(=O)c3cc12`, the TGI in the test on NCI-H23 lung, with M14 melanoma, in the test on SNB-19 CNS, with U251 CNS, in the test with OVCAR-4 ovarian and in the test on HT29 colon was more than 100 µM each time. The TGI in the test with SN12C renal, in the test with RPMI-8226 leukemia, in the test with SK-MEL-28 melanoma and in the test on NCI-H226 lung was more than 100 µM throughout.

Turning to `O=c1oc2ccc(Cl)cc2c(=O)n1-c1ccc(F)cc1F`, the GI50 was 1.87 µM in the test with NCI-H23 lung; 0.558 µM in the test on M14 melanoma; 2.27 µM in the test with SNB-19 CNS; 1.87 µM in the test with U251 CNS; 1.11 µM in the test with OVCAR-4 ovarian; 3.52 µM in the test with HT29 colon. Further, the GI50 was 1.67 µM in the test on SN12C renal, 0.994 µM in the test on RPMI-8226 leukemia, 1.52 µM with SK-MEL-28 melanoma and 1.41 µM in the test on NCI-H226 lung. In addition, the total growth inhibition concentration (TGI) in the test on NCI-H23 lung is 7.24 µM; with M14 melanoma, 5.03 µM; in the test on SNB-19 CNS, more than 100 µM; in the test on U251 CNS it was 36.7 µM; in the test with OVCAR-4 ovarian it was more than 100 µM; with HT29 colon, 38.8 µM. In addition, the TGI in the test with SN12C renal is 8.78 µM; in the test with RPMI-8226 leukemia it was 4.18 µM; with SK-MEL-28 melanoma, 10.5 µM; in the test on NCI-H226 lung, 5.87 µM.
